Several values for one entry are separate records, joined by “and”; a condition that tells them apart may be missing. Equal values may be shown once. Entries after “also recorded” stand apart in the source; their conditions may differ. Read-outs that look alike come from different tables or passages of the source.
Key:
[1] = molecular target: SARS-CoV-2 NSP3 macrodomain (Mac1), P43 crystal form (Severe acute respiratory syndrome coronavirus 2, UniProt P0DTD1); format: binding; details: for 1-BDC: PanDDA background density correction; for X-ray crystal structure: X-ray crystal structure determined (TRUE); for Total number of conformations: ligand conformations modeled in Mac1 crystal structure; for Binding site: site of ligand in X-ray crystal structure; for X-ray crystallography: Binding site: site where the ligand is bound in the X-ray crystal structure
[2] = molecular target: SARS-CoV-2 NSP3 macrodomain (Mac1) (Severe acute respiratory syndrome coronavirus 2, UniProt P0DTD1); assay: biochemical; format: binding; details: for SARS CoV-2 macrodomain HTRF assay: Hillslope: dose-response fit
[3] = crystal soak 10 mM, P43 crystals
[4] = occupancy estimate from PanDDA 1-BDC
[5] = SARS CoV-2 macrodomain HTRF assay, dose-response
[6] = Single dose, concentration 200 μM, read-out: Average % competition
[7] = preliminary screen, compound at 200 μM, mean of 3-4 technical replicates, read-out: % competition in HTRF assay
[8] = crystal soak, soak concentration 10 mM
[9] = crystal soak, soak concentration 10 mM, TRUE = ligand hit
[10] = Single dose, concentration 200 μM, read-out: SARS CoV-2 macrodomain HTRF assay: Average % competition
[11] = occupancy estimate from PanDDA BDC
[12] = crystal soak concentration 10 mM, event 1
[13] = crystal soak concentration 10 mM, P43 crystals
[14] = crystal soak concentration 10 mM

| SMILES | 1-BDC [1] | X-ray crystal structure [1] | Total number of conformations [1] | 2*(1-BDC) (%) [1, 4] [%] | Binding site [1] | Hill slope ([2]; HTRF dose-response fit, Mac1) | Hill slope [2, 5] | inhibition at 200 µM [2, 7] [%] | Pandda run, overall: Modeled [1, 8] | Pandda run, overall: Hit [1, 9] | X-ray crystallography: Binding site [1] | PanDDA run, DMSO background map: 1-BDC ([1]; soak concentration 10 mM) | PanDDA run, DMSO background map: Hit ([1]; soak concentration 10 mM) | inhibition at 200 µM [2, 10] [%] | SARS CoV-2 macrodomain HTRF assay: Hillslope [2] | Occupancy difference (refined_occupancy - 2*(1-BDC)) [1] | Refined ligand occupancy (%) [1] [%] | 2*(1-BDC) (%) [1, 11] [%] | PanDDA run, DMSO background map: 1-BDC [1, 12] | Pandda run, overall: Hit [1, 13] | other results |
| --- | --- | --- | --- | --- | --- | --- | --- | --- | --- | --- | --- | --- | --- | --- | --- | --- | --- | --- | --- | --- | --- |
| O=C(O)C(F)(F)F.OCC1(Nc2ncnc3[nH]ccc23)CCCC1 [AVI-3692] | 0.22 | TRUE | 1 | 44 | Adenosine | 1.3 | 1.3 | 85 |  |  |  |  |  |  |  |  |  |  |  |  | Pandda run, overall: Hit [1, 3]: TRUE; Pandda run, overall: Modeled [1, 3]: TRUE; PanDDA run, DMSO background map: 1-BDC ([1]; crystal soak 10 mM): 0.22; PanDDA run, DMSO background map: Hit ([1]; crystal soak 10 mM): TRUE; inhibition at 200 µM [2, 6]: 85% |
| CCC(CC)(CO)Nc1ncnc2[nH]ccc12 [AVI-3695] | 0.12 | TRUE | 2 | 24 | Adenosine | 1.3 | 1.3 | 89 |  |  |  |  |  |  |  |  |  |  |  |  | Pandda run, overall: Hit [1, 3]: TRUE; Pandda run, overall: Modeled [1, 3]: TRUE; PanDDA run, DMSO background map: 1-BDC ([1]; crystal soak 10 mM): 0.12; PanDDA run, DMSO background map: Hit ([1]; crystal soak 10 mM): TRUE; inhibition at 200 µM [2, 6]: 89% |
| CCC(C)(CO)Nc1ncnc2[nH]ccc12 (stereo not drawn) [AVI-3697] | 0.16 | TRUE | 1 | 32 | Adenosine | 1.2 | 1.2 | 91 |  |  |  |  |  |  |  |  |  |  |  |  | Pandda run, overall: Hit [1, 3]: TRUE; Pandda run, overall: Modeled [1, 3]: TRUE; PanDDA run, DMSO background map: 1-BDC ([1]; crystal soak 10 mM): 0.16; PanDDA run, DMSO background map: Hit ([1]; crystal soak 10 mM): TRUE; inhibition at 200 µM [2, 6]: 91% |
| CC1(C)C[C@@H](CO)N(c2ncnc3[nH]ccc23)C1.O=C(O)C(F)(F)F [AVI-3704] | 0.33 |  | 1 | 66 |  | 1.1 |  | 90 | TRUE | TRUE | Adenosine | 0.33 | TRUE | 90 | 1.1 |  |  |  |  |  |  |
| OCC1CC2(CCCC2)CN1c1ncnc2[nH]ccc12 (stereo not drawn) [AVI-3708] | 0.32 |  | 1 | 64 |  | 1.1 |  | 90 | TRUE | TRUE | Adenosine | 0.32 | TRUE | 90 | 1.1 |  |  |  |  |  |  |
| OCC1C2CCC(C2)N1c1ncnc2[nH]ccc12 (stereo not drawn) [AVI-3713] | 0.29 |  | 1 | 58 |  | 1.1 |  | 92 | TRUE | TRUE | Adenosine | 0.29 | TRUE | 92 | 1.1 |  |  |  |  |  |  |
| OC[C@@H]1C[C@@H]2CCC[C@@H]2N1c1ncnc2[nH]ccc12 [AVI-3720] | 0.29 |  | 1 | 58 |  | 1.2 |  | 92 | TRUE | TRUE | Adenosine | 0.29 | TRUE | 92 | 1.2 |  |  |  |  |  | Phe132 loop open state ([1]; TRUE = open state of Phe132 loop modeled): TRUE |
| O=C(O)C(F)(F)F.OC1([C@H]2CCCN2c2ncnc3[nH]ccc23)Cc2ccccc2C1 [AVI-3731] | 0.2 |  | 1 | 40 |  | 1.1 |  | 100 | TRUE | TRUE | Adenosine | 0.2 | TRUE | 100 | 1.1 |  |  |  |  |  |  |
| OCCC(CO)Nc1ncnc2[nH]ccc12 (stereo not drawn) [AVI-3734] | 0.25 | TRUE | 1 | 50 | Adenosine | 1.2 | 1.2 | 86 | TRUE | TRUE |  | 0.25 | TRUE |  |  |  |  |  |  |  | inhibition at 200 µM [2, 6]: 86% |
| CC(O)C1CCCN1c1ncnc2[nH]ccc12 (stereo not drawn) [AVI-4062] | 0.26 |  | 1 |  |  | 1.1 |  |  |  |  | Adenosine |  |  |  | 1.1 | 18 | 70 | 52 |  |  | Hit (PanDDA run, overall) [1, 3]: TRUE; Hit (PanDDA run, DMSO background map) ([1]; crystal soak 10 mM): TRUE; 1-BDC (PanDDA run, DMSO background map) ([1]; crystal soak 10 mM, event 1): 0.26 and 0.29 |
| O=C(O)C(F)(F)F.OC[C@H](Cc1ccc(O)cc1)Nc1ncnc2[nH]ccc12 [AVI-4066] | 0.2 | TRUE | 1 |  | Adenosine | 1.1 | 1.1 |  |  |  |  |  |  |  |  | 10 | 50 | 40 |  |  | Hit (PanDDA run, overall) [1, 3]: TRUE; Hit (PanDDA run, DMSO background map) ([1]; crystal soak 10 mM): TRUE; 1-BDC (PanDDA run, DMSO background map) ([1]; crystal soak 10 mM, event 1): 0.2 and 0.37 and 0.38; Refined TFA occupancy (%) ([1]; occupancy of TFA in the dataset of the named ligand): 20% |
| CC(C)(O)C1N(c2ncnc3[nH]ccc23)CCC1(C)C (stereo not drawn) [AVI-4126] | 0.16 |  | 2 |  |  | 1.3 |  |  |  |  | Adenosine |  |  |  | 1.3 | 8 | 40 | 32 | 0.17 and 0.16 | TRUE | Phe132 loop open state [1]: TRUE; Pandda run, overall: Modeled [1, 13]: TRUE; Pandda run, overall: Modeling comment [1, 13]: Duplicate, not modeled; PanDDA run, DMSO background map: Hit [1, 14]: TRUE; PanDDA run, DMSO background map: Modeled [1, 14]: TRUE |
| CC(C)(O)C1C2CCCCC2CN1c1ncnc2[nH]ccc12 (stereo not drawn) [AVI-4127] | 0.25 |  | 2 |  |  | 1.3 |  |  |  |  | Adenosine |  |  |  | 1.3 | 10 | 60 | 50 | 0.23 and 0.25 | TRUE | Phe132 loop open state [1]: TRUE; Pandda run, overall: Modeled [1, 13]: TRUE; Pandda run, overall: Modeling comment [1, 13]: Duplicate, not modeled; PanDDA run, DMSO background map: Hit [1, 14]: TRUE; PanDDA run, DMSO background map: Modeled [1, 14]: TRUE |
| CC(C)(O)C1C2CCC2CN1c1ncnc2[nH]ccc12 (stereo not drawn) [AVI-4128] | 0.2 |  | 1 |  |  | 1.2 |  |  |  |  | Adenosine |  |  |  | 1.2 | 20 | 60 | 40 | 0.27 and 0.2 | TRUE | Comment ([1]; comment on ligand modeling / Phe132 loop density): Weak density for open conformation; Pandda run, overall: Modeled [1, 13]: TRUE; Pandda run, overall: Modeling comment [1, 13]: Duplicate, not modeled; also recorded: Weak density for open conformation; PanDDA run, DMSO background map: Hit [1, 14]: TRUE; PanDDA run, DMSO background map: Modeled [1, 14]: TRUE |
| Cc1c[nH]c2ncnc(NCC3(O)CCOCC3)c12 [AVI-4194, 4-(((5-methyl-7H-pyrrolo[2,3-d]pyrimidin-4-yl)amino)methyl)tetrahydro-2H-pyran-4-ol] | 0.09 |  | 1 |  |  | 1.3 |  |  |  |  | Adenosine |  |  |  | 1.3 | 0 | 18 | 18 | 0.13 and 0.09 | TRUE | Pandda run, overall: Modeled [1, 13]: TRUE; Pandda run, overall: Modeling comment [1, 13]: Duplicate, not modeled; PanDDA run, DMSO background map: Hit [1, 14]: TRUE; PanDDA run, DMSO background map: Modeled [1, 14]: TRUE |
| Cc1c[nH]c2ncnc(NCC3(O)CCSCC3)c12 [AVI-4195, 4-(((5-methyl-7H-pyrrolo[2,3-d]pyrimidin-4-yl)amino)methyl)tetrahydro-2H-thiopyran-4-ol] | 0.14 |  | 1 |  |  | 1.2 |  |  |  |  | Adenosine |  |  |  | 1.2 | 0 | 28 | 28 | 0.14 | TRUE | Pandda run, overall: Modeled [1, 13]: TRUE; Pandda run, overall: Modeling comment [1, 13]: Duplicate, not modeled; PanDDA run, DMSO background map: Hit [1, 14]: TRUE; PanDDA run, DMSO background map: Modeled [1, 14]: TRUE |

— paper doi:10.1101/2024.08.25.609621 (bioRxiv, 2024)
